According to ChEMBL document CHEMBL1153945 (Bioorg Med Chem, 2009):

What was measured:
Nitric oxide synthase 1 = Nitric oxide synthase 1 (Rattus norvegicus, UniProt P29476)
Description: Inhibition of rat recombinant nNOS expressed in Escherichia coli assessed as nitric oxide formation by hemoglobin capture assay

Nitric oxide synthase 3 = target: T1, Nitric oxide synthase 3 (Bos taurus, UniProt P29473)
T1 sequence (P29473 whole entry): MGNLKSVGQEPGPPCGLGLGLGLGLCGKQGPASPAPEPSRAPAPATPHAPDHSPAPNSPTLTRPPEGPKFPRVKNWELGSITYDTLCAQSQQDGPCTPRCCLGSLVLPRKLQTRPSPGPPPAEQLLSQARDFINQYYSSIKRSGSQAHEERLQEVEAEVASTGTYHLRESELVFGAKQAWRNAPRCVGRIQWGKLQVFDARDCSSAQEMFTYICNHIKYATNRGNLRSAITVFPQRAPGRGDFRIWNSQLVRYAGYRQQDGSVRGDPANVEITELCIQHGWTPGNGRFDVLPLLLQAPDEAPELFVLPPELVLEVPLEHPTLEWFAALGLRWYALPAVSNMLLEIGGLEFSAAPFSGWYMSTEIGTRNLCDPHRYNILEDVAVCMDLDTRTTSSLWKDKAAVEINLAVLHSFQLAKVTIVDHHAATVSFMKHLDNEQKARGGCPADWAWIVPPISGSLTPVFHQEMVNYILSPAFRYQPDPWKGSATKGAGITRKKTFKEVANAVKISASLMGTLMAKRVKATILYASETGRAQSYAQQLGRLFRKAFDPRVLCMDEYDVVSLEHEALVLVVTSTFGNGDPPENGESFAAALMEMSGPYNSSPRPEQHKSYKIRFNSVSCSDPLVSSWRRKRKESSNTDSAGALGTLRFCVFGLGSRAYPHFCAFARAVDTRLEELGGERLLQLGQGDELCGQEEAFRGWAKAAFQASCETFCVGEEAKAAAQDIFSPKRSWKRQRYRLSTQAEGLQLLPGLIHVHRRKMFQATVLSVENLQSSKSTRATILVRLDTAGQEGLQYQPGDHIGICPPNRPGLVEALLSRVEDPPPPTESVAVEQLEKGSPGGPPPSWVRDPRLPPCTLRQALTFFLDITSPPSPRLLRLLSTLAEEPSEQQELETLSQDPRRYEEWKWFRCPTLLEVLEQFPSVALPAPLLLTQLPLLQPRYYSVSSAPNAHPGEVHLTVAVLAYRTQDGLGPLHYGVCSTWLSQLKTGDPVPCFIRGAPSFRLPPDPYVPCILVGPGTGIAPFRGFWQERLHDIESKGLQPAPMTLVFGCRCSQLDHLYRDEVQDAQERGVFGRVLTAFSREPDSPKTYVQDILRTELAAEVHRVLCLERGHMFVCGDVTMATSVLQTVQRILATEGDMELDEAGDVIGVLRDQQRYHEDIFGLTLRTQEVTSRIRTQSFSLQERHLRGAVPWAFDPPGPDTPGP
Description: Inhibition of bovine recombinant eNOS expressed in Escherichia coli assessed as nitric oxide formation by hemoglobin capture assay

[1] = target: T2, Nitric oxide synthase, inducible (Mus musculus, UniProt P29477)
T2 sequence (P29477 whole entry): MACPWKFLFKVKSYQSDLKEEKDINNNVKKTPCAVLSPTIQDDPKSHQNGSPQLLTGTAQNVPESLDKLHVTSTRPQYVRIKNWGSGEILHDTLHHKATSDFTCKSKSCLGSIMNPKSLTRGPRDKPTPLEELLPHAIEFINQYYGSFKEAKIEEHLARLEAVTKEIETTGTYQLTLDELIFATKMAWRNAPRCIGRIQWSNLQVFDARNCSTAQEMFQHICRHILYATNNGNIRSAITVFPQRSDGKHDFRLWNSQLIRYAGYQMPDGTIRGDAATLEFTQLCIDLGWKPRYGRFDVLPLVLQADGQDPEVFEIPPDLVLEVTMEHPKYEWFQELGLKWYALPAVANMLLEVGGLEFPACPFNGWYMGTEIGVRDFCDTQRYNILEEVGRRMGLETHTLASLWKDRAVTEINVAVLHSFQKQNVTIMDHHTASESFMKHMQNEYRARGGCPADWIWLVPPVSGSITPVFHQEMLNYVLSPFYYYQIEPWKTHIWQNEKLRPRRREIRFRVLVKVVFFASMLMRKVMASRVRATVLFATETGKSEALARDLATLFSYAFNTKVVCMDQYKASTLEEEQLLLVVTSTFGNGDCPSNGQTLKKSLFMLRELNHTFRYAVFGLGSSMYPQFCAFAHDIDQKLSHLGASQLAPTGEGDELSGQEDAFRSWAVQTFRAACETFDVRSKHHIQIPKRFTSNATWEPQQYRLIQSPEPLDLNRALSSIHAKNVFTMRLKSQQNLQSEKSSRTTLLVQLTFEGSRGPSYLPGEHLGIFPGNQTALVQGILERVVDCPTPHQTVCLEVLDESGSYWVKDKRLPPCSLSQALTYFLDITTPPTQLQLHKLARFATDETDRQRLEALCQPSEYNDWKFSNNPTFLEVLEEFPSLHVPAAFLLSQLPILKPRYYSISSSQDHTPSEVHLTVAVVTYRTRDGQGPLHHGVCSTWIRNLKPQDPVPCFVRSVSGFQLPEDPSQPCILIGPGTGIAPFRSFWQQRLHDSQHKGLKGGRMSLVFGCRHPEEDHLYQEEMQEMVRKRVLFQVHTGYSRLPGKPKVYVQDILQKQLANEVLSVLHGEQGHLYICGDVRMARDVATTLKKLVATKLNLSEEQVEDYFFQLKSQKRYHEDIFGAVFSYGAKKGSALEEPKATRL
Description: Inhibition of mouse recombinant iNOS expressed in Escherichia coli assessed as nitric oxide formation by hemoglobin capture assay

Nitric oxide synthase 1, sequence (P29476 whole entry): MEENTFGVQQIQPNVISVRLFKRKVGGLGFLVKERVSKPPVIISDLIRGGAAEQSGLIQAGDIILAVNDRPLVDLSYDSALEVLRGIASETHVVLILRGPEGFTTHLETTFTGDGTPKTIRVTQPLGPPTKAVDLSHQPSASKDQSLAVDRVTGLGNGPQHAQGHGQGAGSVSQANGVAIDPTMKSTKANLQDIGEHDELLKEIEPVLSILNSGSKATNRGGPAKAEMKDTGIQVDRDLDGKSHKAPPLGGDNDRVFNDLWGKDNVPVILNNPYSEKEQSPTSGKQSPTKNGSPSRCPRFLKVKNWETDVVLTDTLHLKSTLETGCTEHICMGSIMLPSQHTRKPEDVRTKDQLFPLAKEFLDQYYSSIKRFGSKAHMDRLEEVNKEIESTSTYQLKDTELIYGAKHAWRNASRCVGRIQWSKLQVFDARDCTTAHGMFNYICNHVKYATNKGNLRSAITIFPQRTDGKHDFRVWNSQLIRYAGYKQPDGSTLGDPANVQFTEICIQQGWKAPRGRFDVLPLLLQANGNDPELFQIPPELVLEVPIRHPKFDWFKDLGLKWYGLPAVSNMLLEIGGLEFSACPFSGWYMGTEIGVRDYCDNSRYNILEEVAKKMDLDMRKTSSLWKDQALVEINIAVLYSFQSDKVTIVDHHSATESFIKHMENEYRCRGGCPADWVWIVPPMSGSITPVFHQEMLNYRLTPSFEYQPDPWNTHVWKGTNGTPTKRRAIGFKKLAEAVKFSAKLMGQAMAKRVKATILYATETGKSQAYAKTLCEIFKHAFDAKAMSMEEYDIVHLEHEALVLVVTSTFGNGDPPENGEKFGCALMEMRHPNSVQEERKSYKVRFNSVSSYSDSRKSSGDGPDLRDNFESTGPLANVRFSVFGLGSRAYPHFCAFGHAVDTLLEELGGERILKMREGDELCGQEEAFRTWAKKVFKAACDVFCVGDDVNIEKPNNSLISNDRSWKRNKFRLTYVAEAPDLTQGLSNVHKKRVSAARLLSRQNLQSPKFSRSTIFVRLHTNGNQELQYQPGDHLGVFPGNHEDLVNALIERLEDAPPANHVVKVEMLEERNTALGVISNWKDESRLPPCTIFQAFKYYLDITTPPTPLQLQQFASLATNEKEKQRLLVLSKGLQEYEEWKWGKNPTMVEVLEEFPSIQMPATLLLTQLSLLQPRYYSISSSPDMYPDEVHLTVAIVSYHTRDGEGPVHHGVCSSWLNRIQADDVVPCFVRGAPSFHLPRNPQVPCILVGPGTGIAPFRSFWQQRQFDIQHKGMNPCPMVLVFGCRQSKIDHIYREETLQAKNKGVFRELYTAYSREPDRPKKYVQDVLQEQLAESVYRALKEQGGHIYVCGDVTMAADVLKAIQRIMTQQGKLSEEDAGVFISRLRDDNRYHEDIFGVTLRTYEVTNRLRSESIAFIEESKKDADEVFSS

Ki (Nitric oxide synthase 1)	Ki (Nitric oxide synthase 3)	Ki [1]	Structure (SMILES)
5000 nM	107 µM	–	Cc1cc(N)nc(C[C@H]2CNC[C@H]2OCCNC(=O)Cc2cccc(F)c2)c1 (racemic)
53 nM	–	–	Cc1cc(N)nc(C[C@H]2CNC[C@H]2NC(=O)CNCCc2cccc(F)c2)c1 (racemic)
400 nM	33 µM	4 µM	Cc1cc(N)nc(C[C@H]2CNC[C@H]2NCCOCCc2cccc(F)c2)c1 (racemic)
–	145 µM	–	Cc1cc(N)nc(C[C@H]2CNC[C@H]2OCC(=O)NCCc2cccc(F)c2)c1 (racemic)
